Reference: US20190119284A1, “ErbB Inhibitors and Uses Thereof” (The Regents of the University of California, priority 2016, published 2019)

Legend:
Format in all cases: biochemical
Conditions in all cases: for inhibition at 1 µM: compound at 1 μM
MST1 = target: T1, MST1 (Homo sapiens, UniProt Q13043); experiment: Nanosyn in vitro kinase profiling: MST1
T1 sequence (Q13043 1-487): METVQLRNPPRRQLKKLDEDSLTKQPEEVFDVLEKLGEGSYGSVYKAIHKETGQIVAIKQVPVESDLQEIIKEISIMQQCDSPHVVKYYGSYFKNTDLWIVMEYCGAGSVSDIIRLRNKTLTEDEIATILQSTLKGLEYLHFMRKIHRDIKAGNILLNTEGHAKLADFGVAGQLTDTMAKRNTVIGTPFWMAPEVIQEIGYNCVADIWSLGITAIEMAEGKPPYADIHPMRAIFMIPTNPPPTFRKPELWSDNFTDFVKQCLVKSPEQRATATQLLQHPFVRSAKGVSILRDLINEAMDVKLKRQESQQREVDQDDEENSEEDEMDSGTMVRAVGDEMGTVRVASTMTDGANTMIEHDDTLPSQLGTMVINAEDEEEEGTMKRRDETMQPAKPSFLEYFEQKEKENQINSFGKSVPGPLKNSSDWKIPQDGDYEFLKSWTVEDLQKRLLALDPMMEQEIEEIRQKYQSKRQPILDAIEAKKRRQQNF
Method: (§1) This was confirmed by in vitro profiling against a panel of kinases, with compound 2 only showing potent inhibition of EGFR and Ab1 (Table 2).
(§2) In vitro Kinome Screen. In vitro profiling of compound 2 at 100 nM was conducted by Nanosyn.

IKK-BETA = target: T2, IKK-BETA (Homo sapiens, UniProt O14920); experiment: Nanosyn in vitro kinase profiling: IKK-BETA
T2 sequence (O14920 1-756): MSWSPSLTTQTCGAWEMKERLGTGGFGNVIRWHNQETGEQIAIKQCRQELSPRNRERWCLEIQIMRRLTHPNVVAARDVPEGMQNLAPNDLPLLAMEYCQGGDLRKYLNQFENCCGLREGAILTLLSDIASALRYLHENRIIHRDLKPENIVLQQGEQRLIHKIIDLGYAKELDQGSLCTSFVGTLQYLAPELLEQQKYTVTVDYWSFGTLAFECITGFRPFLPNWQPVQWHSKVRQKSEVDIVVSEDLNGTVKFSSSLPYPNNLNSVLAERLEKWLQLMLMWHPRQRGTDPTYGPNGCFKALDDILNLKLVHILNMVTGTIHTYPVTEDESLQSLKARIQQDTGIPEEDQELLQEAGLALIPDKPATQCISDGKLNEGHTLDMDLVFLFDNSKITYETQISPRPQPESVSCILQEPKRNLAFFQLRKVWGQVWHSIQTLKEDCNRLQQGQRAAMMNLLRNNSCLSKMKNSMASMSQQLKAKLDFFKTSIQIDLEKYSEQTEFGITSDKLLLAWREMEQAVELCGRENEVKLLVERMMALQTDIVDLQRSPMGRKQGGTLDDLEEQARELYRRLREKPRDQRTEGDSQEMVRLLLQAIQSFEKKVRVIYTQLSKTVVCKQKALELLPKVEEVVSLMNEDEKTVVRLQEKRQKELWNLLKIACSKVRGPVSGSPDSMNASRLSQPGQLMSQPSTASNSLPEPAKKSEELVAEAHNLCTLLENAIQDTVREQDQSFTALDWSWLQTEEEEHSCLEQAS
Method: as §1, §2

ITK = target: T3, ITK (Homo sapiens, UniProt Q08881); experiment: Nanosyn in vitro kinase profiling: ITK
T3 sequence (Q08881 1-620): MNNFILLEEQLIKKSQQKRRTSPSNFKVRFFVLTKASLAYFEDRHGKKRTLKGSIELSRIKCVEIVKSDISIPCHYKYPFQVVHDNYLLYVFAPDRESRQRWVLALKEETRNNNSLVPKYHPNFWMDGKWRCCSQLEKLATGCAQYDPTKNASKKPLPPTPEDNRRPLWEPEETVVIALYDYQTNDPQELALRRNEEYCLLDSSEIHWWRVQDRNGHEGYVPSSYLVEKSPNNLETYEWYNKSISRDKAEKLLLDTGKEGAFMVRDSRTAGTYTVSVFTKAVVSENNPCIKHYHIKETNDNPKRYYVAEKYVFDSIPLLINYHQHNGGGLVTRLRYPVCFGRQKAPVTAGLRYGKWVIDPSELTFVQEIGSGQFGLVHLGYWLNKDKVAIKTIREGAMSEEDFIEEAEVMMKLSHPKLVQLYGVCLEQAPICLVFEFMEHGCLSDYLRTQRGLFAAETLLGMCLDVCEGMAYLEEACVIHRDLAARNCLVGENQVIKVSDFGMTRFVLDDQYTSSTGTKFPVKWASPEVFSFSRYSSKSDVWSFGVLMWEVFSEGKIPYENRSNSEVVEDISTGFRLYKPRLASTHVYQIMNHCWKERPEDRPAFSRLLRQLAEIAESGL
Method: as §1, §2

CHEK1 = target: T4, CHEK1 (Homo sapiens, UniProt O14757); experiment: Nanosyn in vitro kinase profiling: CHEK1
T4 sequence (O14757 1-476): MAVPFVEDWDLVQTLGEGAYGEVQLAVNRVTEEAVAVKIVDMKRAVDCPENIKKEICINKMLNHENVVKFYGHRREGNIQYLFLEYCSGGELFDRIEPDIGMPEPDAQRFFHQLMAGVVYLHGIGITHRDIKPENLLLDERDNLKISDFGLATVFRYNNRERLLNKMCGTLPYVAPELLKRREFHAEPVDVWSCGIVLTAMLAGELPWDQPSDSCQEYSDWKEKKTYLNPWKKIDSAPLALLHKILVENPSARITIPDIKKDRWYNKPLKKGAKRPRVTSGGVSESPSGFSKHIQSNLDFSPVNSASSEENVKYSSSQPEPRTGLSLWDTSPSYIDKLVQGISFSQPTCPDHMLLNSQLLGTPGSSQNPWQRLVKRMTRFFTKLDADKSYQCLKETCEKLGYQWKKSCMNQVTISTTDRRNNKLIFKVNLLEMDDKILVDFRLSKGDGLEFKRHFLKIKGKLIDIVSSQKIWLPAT
Method: as §1, §2

EGFR = EGFR (Homo sapiens, UniProt P00533); experiment: Nanosyn in vitro kinase profiling: EGFR
Method: as §1, §2

PYK2 = PYK2 (Homo sapiens, UniProt Q14289); experiment: Nanosyn in vitro kinase profiling: PYK2
Method: as §1, §2

P38-ALPHA = P38-ALPHA (Homo sapiens, UniProt Q16539); experiment: Nanosyn in vitro kinase profiling: P38-ALPHA
Method: as §1, §2

Chain of PYK2 (Q14289 whole entry, species assumed): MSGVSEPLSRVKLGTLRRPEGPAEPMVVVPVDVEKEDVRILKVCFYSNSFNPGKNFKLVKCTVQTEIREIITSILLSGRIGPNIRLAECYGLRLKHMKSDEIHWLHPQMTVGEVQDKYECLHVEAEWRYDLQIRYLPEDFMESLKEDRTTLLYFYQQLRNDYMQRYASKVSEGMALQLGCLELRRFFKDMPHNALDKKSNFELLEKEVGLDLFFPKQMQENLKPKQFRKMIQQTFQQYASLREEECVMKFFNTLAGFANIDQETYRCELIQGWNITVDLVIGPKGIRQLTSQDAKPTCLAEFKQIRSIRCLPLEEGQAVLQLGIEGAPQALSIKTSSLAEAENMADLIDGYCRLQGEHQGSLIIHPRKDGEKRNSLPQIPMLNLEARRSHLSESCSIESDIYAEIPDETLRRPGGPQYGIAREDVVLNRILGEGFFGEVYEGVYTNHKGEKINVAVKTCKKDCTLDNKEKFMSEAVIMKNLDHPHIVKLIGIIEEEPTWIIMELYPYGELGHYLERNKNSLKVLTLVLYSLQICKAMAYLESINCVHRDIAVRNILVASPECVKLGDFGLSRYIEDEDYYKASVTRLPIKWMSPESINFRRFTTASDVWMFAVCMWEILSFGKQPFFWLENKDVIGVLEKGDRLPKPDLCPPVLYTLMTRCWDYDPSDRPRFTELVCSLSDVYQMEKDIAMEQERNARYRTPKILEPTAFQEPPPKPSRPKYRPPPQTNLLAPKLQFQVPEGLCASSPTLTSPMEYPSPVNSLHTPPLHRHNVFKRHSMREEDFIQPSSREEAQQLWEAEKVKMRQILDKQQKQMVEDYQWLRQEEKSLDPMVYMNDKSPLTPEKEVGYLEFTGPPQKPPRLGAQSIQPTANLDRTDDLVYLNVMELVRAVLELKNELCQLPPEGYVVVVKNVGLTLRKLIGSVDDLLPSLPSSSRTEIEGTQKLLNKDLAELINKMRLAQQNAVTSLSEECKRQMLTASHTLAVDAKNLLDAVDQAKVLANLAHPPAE
Chain of P38-ALPHA (Q16539 whole entry): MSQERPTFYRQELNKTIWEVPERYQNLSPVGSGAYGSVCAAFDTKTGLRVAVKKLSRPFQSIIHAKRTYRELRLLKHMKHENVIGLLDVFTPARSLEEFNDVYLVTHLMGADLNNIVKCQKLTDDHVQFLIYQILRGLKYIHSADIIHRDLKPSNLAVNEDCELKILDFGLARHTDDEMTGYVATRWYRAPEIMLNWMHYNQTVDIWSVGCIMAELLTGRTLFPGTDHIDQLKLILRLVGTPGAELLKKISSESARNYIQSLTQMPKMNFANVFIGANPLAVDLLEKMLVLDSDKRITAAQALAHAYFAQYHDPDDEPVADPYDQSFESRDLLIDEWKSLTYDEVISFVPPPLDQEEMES
Chain of EGFR (P00533 25-1210): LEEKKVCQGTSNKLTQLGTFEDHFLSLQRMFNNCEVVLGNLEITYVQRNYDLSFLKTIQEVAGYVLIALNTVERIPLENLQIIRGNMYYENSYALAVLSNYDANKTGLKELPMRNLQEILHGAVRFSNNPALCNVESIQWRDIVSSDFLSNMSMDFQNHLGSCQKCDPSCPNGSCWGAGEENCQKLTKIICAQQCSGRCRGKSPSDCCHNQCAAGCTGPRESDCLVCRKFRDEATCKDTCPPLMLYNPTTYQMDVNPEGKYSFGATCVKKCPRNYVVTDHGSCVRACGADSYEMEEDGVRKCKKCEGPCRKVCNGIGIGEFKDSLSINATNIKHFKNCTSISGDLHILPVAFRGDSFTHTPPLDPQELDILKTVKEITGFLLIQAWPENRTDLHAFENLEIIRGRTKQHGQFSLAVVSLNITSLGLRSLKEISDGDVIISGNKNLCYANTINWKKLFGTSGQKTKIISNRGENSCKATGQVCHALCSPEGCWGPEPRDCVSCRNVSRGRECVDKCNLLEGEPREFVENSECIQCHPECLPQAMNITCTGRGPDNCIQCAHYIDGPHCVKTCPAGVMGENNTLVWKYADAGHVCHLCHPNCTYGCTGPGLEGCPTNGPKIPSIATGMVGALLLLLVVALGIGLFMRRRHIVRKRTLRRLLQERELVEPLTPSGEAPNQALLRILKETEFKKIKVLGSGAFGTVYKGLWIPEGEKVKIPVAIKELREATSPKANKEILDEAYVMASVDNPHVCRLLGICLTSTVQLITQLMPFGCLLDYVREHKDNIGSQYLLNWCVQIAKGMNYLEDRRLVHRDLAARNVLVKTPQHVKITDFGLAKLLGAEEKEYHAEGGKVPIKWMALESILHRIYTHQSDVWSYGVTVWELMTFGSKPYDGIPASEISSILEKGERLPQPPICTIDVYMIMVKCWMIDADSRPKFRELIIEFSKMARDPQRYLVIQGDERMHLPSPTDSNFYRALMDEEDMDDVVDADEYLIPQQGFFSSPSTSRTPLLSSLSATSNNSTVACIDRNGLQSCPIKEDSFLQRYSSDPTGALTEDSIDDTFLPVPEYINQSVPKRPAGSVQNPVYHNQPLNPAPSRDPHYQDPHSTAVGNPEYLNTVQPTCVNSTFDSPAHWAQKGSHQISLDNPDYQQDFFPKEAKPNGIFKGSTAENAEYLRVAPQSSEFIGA

Row | inhibition at 0.1 µM (MST1; compound at 100 nM) [%] | inhibition at 1 µM (MST1) [%] | inhibition at 0.1 µM (IKK-BETA; compound at 100 nM) [%] | inhibition at 1 µM (IKK-BETA) [%] | inhibition at 0.1 µM (ITK; compound at 100 nM) [%] | inhibition at 1 µM (ITK) [%] | inhibition at 0.1 µM (CHEK1; compound at 100 nM) [%] | inhibition at 1 µM (CHEK1) [%] | inhibition at 0.1 µM (EGFR; compound at 100 nM) [%] | inhibition at 1 µM (EGFR) [%] | inhibition at 0.1 µM (PYK2; compound at 100 nM) [%] | inhibition at 1 µM (PYK2) [%] | inhibition at 0.1 µM (P38-ALPHA; compound at 100 nM) [%] | inhibition at 1 µM (P38-ALPHA) [%] | Compound
1 | 3.85 | 19.9 | 1.92 | 2.91 | 1.24 | 13.9 | 0.965 | 2.27 | 95.6 | 96.9 | 3.81 | 20.2 | 6.61 | 12.9 | COc1ccc(-c2ccco2)cc1Nc1ncnc2[nH]nc(-c3ccco3)c12 [compound 2, 3-(furan-2-yl)-N-(5-(furan-2-yl)-2-methoxyphenyl)-1H-pyrazolo[3,4-d]pyrimidin-4-amine]
2 | – | 84 | – | 8 | – | 24 | – | 10 | – | 99 | – | 41 | – | 2 | COc1ccc(-c2ccoc2)cc1Nc1ncnc2[nH]cc(-c3cc[nH]n3)c12 [compound 3, N-(5-(furan-3-yl)-2-methoxyphenyl)-5-(1H-pyrazol-3-yl)-7H-pyrrolo[2,3-d]pyrimidin-4-amine]
